Experimental findings from patent US20230107642A1 (Erasca, Inc., priority 2020, published 2023) are described below.

Molecules are shown by their SMILES.

This test concerns the target T1, Cys12 of the KRAS 4B G12C protein (Homo sapiens, UniProt P01116, G12C).
T1 construct: This protein contained 188 amino acids in total, including an N-terminal 6-Histidine tag; made in house; host or cells: E. coli BL21
Nature of the test: In vitro covalent adduct formation (CAF) assay, LC-MS intact mass. Conditions: 10 uM compound, 60 min. The format is binding. Put shortly:
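GDP-loaded (>95%) His-TEV-tagged KRAS 4B G12C (residues 1–169), 5 μM in TBS pH 7.4, incubated with 10 μM compound (4% DMSO) at 22° C for one hour. Intact-protein LC-MS gave free:adduct ratios, reported as percent protein modified; duplicate runs.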
Turning to `C=CC(=O)N1[C@H](C)CN(c2nc(=O)n3c4c(c(-c5ccc(F)cc5F)c(C(F)(F)F)cc24)SC[C@@H]3CN2CCN(C3CC3)CC2)C[C@@H]1C` (atropisomer, axis not shown) [Example 1347, (3S,10S)-7-((3S,5R)-4-acryloyl-3,5-dimethylpiperazin-1-yl)-3-((4-cyclopropylpiperazin-1-yl)methyl)-10-(2,4-difluorophenyl)-9-(trifluoromethyl)-2,3-dihydro-5H-[1,4]thiazino[2,3,4-ij]quinazolin-5-one], the “% CAF 10 uM @ 60 min” value stood at 89.7%.
`C=CC(=O)N1[C@H](C)CN(c2nc(=O)n3c4c(c(-c5cc(Cl)c(F)cc5F)c(C(F)(F)F)cc24)SC[C@@H]3CN2CCN(C3CC3)CC2)C[C@@H]1C` (atropisomer, axis not shown) [Example 1348, (3S,10R)-7-((3S,5R)-4-acryloyl-3,5-dimethylpiperazin-1-yl)-10-(5-chloro-2,4-difluorophenyl)-3-((4-cyclopropylpiperazin-1-yl)methyl)-9-(trifluoromethyl)-2,3-dihydro-5H-[1,4]thiazino[2,3,4-ij]quinazolin-5-one]: the “% CAF 10 uM @ 60 min” value is reported as 94.4%.
The value for `C=CC(=O)N1[C@H](C)CN(c2nc(=O)n3c4c(c(-c5cc(Cl)c(F)cc5F)c(C(F)(F)F)cc24)SC[C@@H]3CN2CCN(C3CC3)CC2)C[C@@H]1C` (atropisomer, axis not shown) [Example 1349, (3S,10S)-7-((3S,5R)-4-acryloyl-3,5-dimethylpiperazin-1-yl)-10-(5-chloro-2,4-difluorophenyl)-3-((4-cyclopropylpiperazin-1-yl)methyl)-9-(trifluoromethyl)-2,3-dihydro-5H-[1,4]thiazino[2,3,4-ij]quinazolin-5-one] was 86.9%; that for `C=CC(=O)N1CCN(c2nc(=O)n3c4c(c(-c5cc(Cl)c(F)cc5F)c(C(F)(F)F)cc24)SC[C@@H]3CN2CCN(C3CC3)CC2)CC1` (atropisomer, axis not shown) [Example 1355, (3S,10R)-7-(4-acryloylpiperazin-1-yl)-10-(5-chloro-2,4-difluorophenyl)-3-((4-cyclopropylpiperazin-1-yl)methyl)-9-(trifluoromethyl)-2,3-dihydro-5H-[1,4]thiazino[2,3,4-ij]quinazolin-5-one] was 99.2%.
With `C=CC(=O)N1CCN(c2nc(=O)n3c4c(c(-c5cc(Cl)c(F)cc5F)c(C(F)(F)F)cc24)SC[C@@H]3CN2CCN(C3CC3)CC2)CC1` (atropisomer, axis not shown) [Example 1356, (3S,10S)-7-(4-acryloylpiperazin-1-yl)-10-(5-chloro-2,4-difluorophenyl)-3-((4-cyclopropylpiperazin-1-yl)methyl)-9-(trifluoromethyl)-2,3-dihydro-5H-[1,4]thiazino[2,3,4-ij]quinazolin-5-one] the figure was 92.8%.
The value for `C=CC(=O)N1[C@H](C)CN(c2nc(=O)n3c4c(c(-c5cc(Cl)c(F)cc5F)c(C(F)(F)F)cc24)SCC2(COC2)C3)C[C@@H]1C` (atropisomer, axis not shown) [Example 1361a, (R)-8′-((3S,5R)-4-acryloyl-3,5-dimethylpiperazin-1-yl)-11′-(5-chloro-2,4-difluorophenyl)-10′-(trifluoromethyl)-2′H,4′H,6′H-spiro[oxetane-3,3′-[1,4]thiazepino[2,3,4-ij]quinazolin]-6′-one] was 93.3%.
Consider `C=CC(=O)N1[C@H](C)CN(c2nc(=O)n3c4c(c(-c5cc(Cl)c(F)cc5F)c(C(F)(F)F)cc24)SCC2(COC2)C3)C[C@@H]1C` (atropisomer, axis not shown) [Example 1361b], for which the “% CAF 10 uM @ 60 min” value is recorded as 71.4%.
As to `C=CC(=O)N1CCN(c2nc(=O)n3c4c(c(-c5cc(Cl)c(F)cc5F)c(C(F)(F)F)cc24)SC[C@@H]3COCOC)CC1` (atropisomer, axis not shown) [Example 1364], the “% CAF 10 uM @ 60 min” value is on record as 98%.
The value for `C=CC(=O)N1CCN(c2nc(=O)n3c4c(c(-c5cc(Cl)c(F)cc5F)c(C(F)(F)F)cc24)SC[C@@H]3COCOC)CC1` (atropisomer, axis not shown) [Example 1365] was 83.7%; that for `C=CC(=O)N1[C@H](C)CN(c2nc(=O)n3c4c(c(-c5ccc(F)c6cnn(C)c56)c(C(F)(F)F)cc24)SC[C@@H]3COC)C[C@@H]1C` (atropisomer, axis not shown) [Example 1366a, (3S,10S)-7-((3S,5R)-4-acryloyl-3,5-dimethylpiperazin-1-yl)-10-(4-fluoro-1-methyl-1H-indazol-7-yl)-3-(methoxymethyl)-9-(trifluoromethyl)-2,3-dihydro-5H-[1,4]thiazino[2,3,4-ij]quinazolin-5-one] was 46.8%; that for `C=CC(=O)N1CCN(c2nc(=O)n3c4c(c(-c5ccc(F)cc5F)c(C(F)(F)F)cc24)SC[C@@H]3COCOC)CC1` (atropisomer, axis not shown) [Example 1367, (3S,10R)-7-(4-acryloylpiperazin-1-yl)-10-(2,4-difluorophenyl)-3-((methoxymethoxy)methyl)-9-(trifluoromethyl)-2,3-dihydro-5H-[1,4]thiazino[2,3,4-ij]quinazolin-5-one] was 92.4%.
Regarding `C=CC(=O)N1[C@H](C)CN(c2nc(=O)n3c4c(c(-c5cc(Cl)c(F)cc5F)c(C(F)(F)F)cc24)SC[C@@H]3COCOC)C[C@@H]1C` (atropisomer, axis not shown) [Example 1369], the “% CAF 10 uM @ 60 min” value is listed as 64.6%.
The value for `C=CC(=O)N1[C@H](C)CN(c2nc(=O)n3c4c(c(-c5cc(Cl)c(F)cc5F)c(C(F)(F)F)cc24)SC[C@@H]3COCOC)C[C@@H]1C` (atropisomer, axis not shown) [Example 1370, (3S,10R)-7-((3S,5R)-4-acryloyl-3,5-dimethylpiperazin-1-yl)-10-(5-chloro-2,4-difluorophenyl)-3-((methoxymethoxy)methyl)-9-(trifluoromethyl)-2,3-dihydro-5H-[1,4]thiazino[2,3,4-ij]quinazolin-5-one] was 94.4%.
The value for `C=CC(=O)N1[C@H](C)CN(c2nc(=O)n3c4c(c(-c5cc(Cl)c(F)cc5F)c(C(F)(F)F)cc24)SC[C@@H]3CN(C)C)C[C@@H]1C` (atropisomer, axis not shown) [Example 1375, (3S,10R)-7-((3S,5R)-4-acryloyl-3,5-dimethylpiperazin-1-yl)-10-(5-chloro-2,4-difluorophenyl)-3-((dimethylamino)methyl)-9-(trifluoromethyl)-2,3-dihydro-5H-[1,4]thiazino[2,3,4-ij]quinazolin-5-one] was 93.9%; that for `C=CC(=O)N1[C@H](C)CN(c2nc(=O)n3c4c(c(-c5cc(Cl)c(F)cc5F)c(C(F)(F)F)cc24)SC[C@@H]3CN(C)C)C[C@@H]1C` (atropisomer, axis not shown) [Example 1376, (3S,10S)-7-((3S,5R)-4-acryloyl-3,5-dimethylpiperazin-1-yl)-10-(5-chloro-2,4-difluorophenyl)-3-((dimethylamino)methyl)-9-(trifluoromethyl)-2,3-dihydro-5H-[1,4]thiazino[2,3,4-ij]quinazolin-5-one] was 83.9%; that for `C=CC(=O)N1C[C@H](C)N(c2nc(=O)n3c4c(c(-c5cccc6cnn(C)c56)c(C(F)(F)F)cc24)SC[C@@H]3CN2CCN(CC)CC2)C[C@H]1C` (atropisomer, axis not shown) [Example 1381, (3S,10R)-7-((2S,5R)-4-acryloyl-2,5-dimethylpiperazin-1-yl)-3-((4-ethylpiperazin-1-yl)methyl)-10-(1-methyl-1H-indazol-7-yl)-9-(trifluoromethyl)-2,3-dihydro-5H-[1,4]thiazino[2,3,4-ij]quinazolin-5-one] was 19.1%.
The value for `C=CC(=O)N1C[C@H](C)N(c2nc(=O)n3c4c(c(-c5cccc6cnn(C)c56)c(C(F)(F)F)cc24)SC[C@@H]3CN2CCN(CC)CC2)C[C@H]1C` (atropisomer, axis not shown) [Example 1382, (3S,10S)-7-((2S,5R)-4-acryloyl-2,5-dimethylpiperazin-1-yl)-3-((4-ethylpiperazin-1-yl)methyl)-10-(1-methyl-1H-indazol-7-yl)-9-(trifluoromethyl)-2,3-dihydro-5H-[1,4]thiazino[2,3,4-ij]quinazolin-5-one] was 49.1%; that for `C=CC(=O)N1C[C@H](C)N(c2nc(=O)n3c4c(c(-c5cccc6cnn(C)c56)c(C(F)(F)F)cc24)SC[C@@H]3CN2CCN(C3CC3)CC2)C[C@H]1C` (atropisomer, axis not shown) [Example 1388, (3S,10S)-7-((2S,5R)-4-acryloyl-2,5-dimethylpiperazin-1-yl)-3-((4-cyclopropylpiperazin-1-yl)methyl)-10-(1-methyl-1H-indazol-7-yl)-9-(trifluoromethyl)-2,3-dihydro-5H-[1,4]thiazino[2,3,4-ij]quinazolin-5-one] was 95.3%; that for `C=CC(=O)N1[C@H](C)CN(c2nc(=O)n3c4c(c(-c5cccc6cnn(C)c56)c(C(F)(F)F)cc24)SC[C@@H]3CN2CCN(CC)CC2)C[C@@H]1C` (atropisomer, axis not shown) [Example 1389, (3S,10S)-7-((3S,5R)-4-acryloyl-3,5-dimethylpiperazin-1-yl)-3-((4-ethylpiperazin-1-yl)methyl)-10-(1-methyl-1H-indazol-7-yl)-9-(trifluoromethyl)-2,3-dihydro-5H-[1,4]thiazino[2,3,4-ij]quinazolin-5-one] was 69.1%.
`C=CC(=O)N1CCN(c2nc(=O)n3c4c(c(-c5ccc(F)cc5F)c(C(F)(F)F)cc24)SC[C@@H]3CN2CCN(C3CC3)CC2)CC1` (atropisomer, axis not shown) [Example 1390, (3S,10R)-7-(4-acryloylpiperazin-1-yl)-3-((4-cyclopropylpiperazin-1-yl)methyl)-10-(2,4-difluorophenyl)-9-(trifluoromethyl)-2,3-dihydro-5H-[1,4]thiazino[2,3,4-ij]quinazolin-5-one]: the “% CAF 10 uM @ 60 min” value came out at 96.7%.
